Assay results reported in PubChem BioAssay AID2060344 (Molecular Pharmacology Branch, DTP, NCI, 2025).

Tested on: SK-MEL-2 multi-cell spheroids, viability
Assay: Anticancer human tumor SK-MEL-2 cell line growth inhibition [TAK];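 note: spheroids exposed to drugs for seven days before readout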;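 for viability, T/C: percent of DMSO vehicle control luminescence so 100% = untreated viability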
Conditions: for IC50: curve of first compound; for viability, T/C: stronger effect = lower value
Summary of the method: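 Drug combinations, each paired with TAK-243 or ipatasertib, were tested on multi-cell spheroids of 60% malignant cells, 25% HUVEC and 15% hMSC. Top concentrations were at or near the clinical Cmax (10 microM if undetermined), decreasing by half-log; viability is given as % test/control.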

[1] = second compound 0.3 µM, first compound 0.0316 µM
[2] = second compound 0.3 µM, first compound 0.1 µM
[3] = second compound 0.3 µM, first compound 0.316 µM
[4] = second compound 0.3 µM, first compound 1 µM
[5] = second compound 0.3 µM, first compound 3.16 µM
[6] = second compound 0.3 µM, first compound 10 µM
[7] = second compound 0.949 µM, first compound 0.0316 µM
[8] = second compound 0.949 µM, first compound 0.1 µM
[9] = second compound 0.949 µM, first compound 0.316 µM
[10] = second compound 0.949 µM, first compound 1 µM
[11] = second compound 0.949 µM, first compound 3.16 µM
[12] = second compound 0.949 µM, first compound 10 µM
[13] = second compound 3 µM, first compound 0.0316 µM
[14] = second compound 3 µM, first compound 0.1 µM
[15] = second compound 3 µM, first compound 0.316 µM
[16] = second compound 3 µM, first compound 1 µM
[17] = second compound 3 µM, first compound 3.16 µM
[18] = second compound 3 µM, first compound 10 µM
[19] = second compound 9.49 µM, first compound 0.0316 µM
[20] = second compound 9.49 µM, first compound 0.1 µM
[21] = second compound 9.49 µM, first compound 0.316 µM
[22] = second compound 9.49 µM, first compound 1 µM
[23] = second compound 9.49 µM, first compound 3.16 µM
[24] = second compound 9.49 µM, first compound 10 µM
[25] = second compound 30 µM, first compound 0.0316 µM
[26] = second compound 30 µM, first compound 0.1 µM
[27] = second compound 30 µM, first compound 0.316 µM
[28] = second compound 30 µM, first compound 1 µM
[29] = second compound 30 µM, first compound 3.16 µM
[30] = second compound 30 µM, first compound 10 µM
[31] = second compound 0.3 µM, first compound 0.000316 µM
[32] = second compound 0.3 µM, first compound 0.001 µM
[33] = second compound 0.3 µM, first compound 0.00316 µM
[34] = second compound 0.3 µM, first compound 0.01 µM
[35] = second compound 0.949 µM, first compound 0.000316 µM
[36] = second compound 0.949 µM, first compound 0.001 µM
[37] = second compound 0.949 µM, first compound 0.00316 µM
[38] = second compound 0.949 µM, first compound 0.01 µM
[39] = second compound 3 µM, first compound 0.000316 µM
[40] = second compound 3 µM, first compound 0.001 µM
[41] = second compound 3 µM, first compound 0.00316 µM
[42] = second compound 3 µM, first compound 0.01 µM
[43] = second compound 9.49 µM, first compound 0.000316 µM
[44] = second compound 9.49 µM, first compound 0.001 µM
[45] = second compound 9.49 µM, first compound 0.00316 µM
[46] = second compound 9.49 µM, first compound 0.01 µM
[47] = second compound 30 µM, first compound 0.000316 µM
[48] = second compound 30 µM, first compound 0.001 µM
[49] = second compound 30 µM, first compound 0.00316 µM
[50] = second compound 30 µM, first compound 0.01 µM

CC(C)(C)c1nc(-c2cccc(NS(=O)(=O)c3c(F)cccc3F)c2F)c(-c2ccnc(N)n2)s1 + CC(C)NCC(C(=O)N1CCN(c2ncnc3c2C(C)CC3O)CC1)c1ccc(Cl)cc1
IC50 (second compound 0.3 µM): 590 nM
IC50 (second compound 0.949 µM): 496 nM
IC50 (second compound 3 µM): 323 nM
IC50 (second compound 9.49 µM): 285 nM
IC50 (second compound 30 µM): 230 nM
viability, T/C [1]: 138%
viability, T/C [2]: 118%
viability, T/C [3]: 75.9%
viability, T/C [4]: 28.6%
viability, T/C [5]: 12.5%
viability, T/C [6]: 17.2%
viability, T/C [7]: 119%
viability, T/C [8]: 109%
viability, T/C [9]: 66.3%
viability, T/C [10]: 25.6%
viability, T/C [11]: 8.33%
viability, T/C [12]: 15.6%
viability, T/C [13]: 108%
viability, T/C [14]: 105%
viability, T/C [15]: 50.1%
viability, T/C [16]: 15.7%
viability, T/C [17]: 6.41%
viability, T/C [18]: 11.7%
viability, T/C [19]: 88.1%
viability, T/C [20]: 85.5%
viability, T/C [21]: 46.5%
viability, T/C [22]: 9.65%
viability, T/C [23]: 4.3%
viability, T/C [24]: 10.2%
viability, T/C [25]: 73.1%
viability, T/C [26]: 73.8%
viability, T/C [27]: 41.1%
viability, T/C [28]: 9.6%
viability, T/C [29]: 5.11%
viability, T/C [30]: 10%

CC(C)CC(NC(=O)CNC(=O)c1cc(Cl)ccc1Cl)B1OC(=O)CC(CC(=O)O)(C(=O)O)O1 (stereo not given) + CC(C)NCC(C(=O)N1CCN(c2ncnc3c2C(C)CC3O)CC1)c1ccc(Cl)cc1
IC50 (second compound 0.3 µM): 17.1 nM
IC50 (second compound 0.949 µM): 12.8 nM
IC50 (second compound 3 µM): 5.07 nM
IC50 (second compound 9.49 µM): 2.04 nM
IC50 (second compound 30 µM): < 0.316 nM
viability, T/C [31]: 94.8%
viability, T/C [32]: 94.7%
viability, T/C [33]: 85%
viability, T/C [34]: 64.9%
viability, T/C [1]: 32.8%
viability, T/C [2]: 5.51%
viability, T/C [35]: 81.3%
viability, T/C [36]: 76.5%
viability, T/C [37]: 70.3%
viability, T/C [38]: 59.5%
viability, T/C [7]: 20.2%
viability, T/C [8]: 6.05%
viability, T/C [39]: 70%
viability, T/C [40]: 67%
viability, T/C [41]: 53.8%
viability, T/C [42]: 43.3%
viability, T/C [13]: 20.2%
viability, T/C [14]: 5.6%
viability, T/C [43]: 52.6%
viability, T/C [44]: 55.7%
viability, T/C [45]: 44.2%
viability, T/C [46]: 40.3%
viability, T/C [19]: 17.9%
viability, T/C [20]: 5.27%
viability, T/C [47]: 47.8%
viability, T/C [48]: 47.5%
viability, T/C [49]: 41.7%
viability, T/C [50]: 33.5%
viability, T/C [25]: 14.4%
viability, T/C [26]: 4.44%

CC(C)n1nc(-c2ccc3oc(N)nc3c2)c2c(N)ncnc21 + CC(C)NCC(C(=O)N1CCN(c2ncnc3c2C(C)CC3O)CC1)c1ccc(Cl)cc1
IC50 (second compound 0.3 µM): 29.5 nM
IC50 (second compound 0.949 µM): 10.7 nM
IC50 (second compound 3 µM): 3.22 nM
IC50 (second compound 9.49 µM): 1.31 nM
IC50 (second compound 30 µM): 0.858 nM
viability, T/C [31]: 98.6%
viability, T/C [32]: 92.4%
viability, T/C [33]: 82.1%
viability, T/C [34]: 76.8%
viability, T/C [1]: 45.8%
viability, T/C [2]: 25.5%
viability, T/C [35]: 85.6%
viability, T/C [36]: 82%
viability, T/C [37]: 58.7%
viability, T/C [38]: 55.6%
viability, T/C [7]: 33.4%
viability, T/C [8]: 19%
viability, T/C [39]: 66%
viability, T/C [40]: 62.3%
viability, T/C [41]: 48.5%
viability, T/C [42]: 37.8%
viability, T/C [13]: 27.2%
viability, T/C [14]: 12.5%
viability, T/C [43]: 56.3%
viability, T/C [44]: 54.4%
viability, T/C [45]: 42.2%
viability, T/C [46]: 34.7%
viability, T/C [19]: 25.1%
viability, T/C [20]: 13.6%
viability, T/C [47]: 52.6%
viability, T/C [48]: 51.4%
viability, T/C [49]: 41.2%
viability, T/C [50]: 32.9%
viability, T/C [25]: 20.7%
viability, T/C [26]: 9.08%

CCCS(=O)(=O)Nc1ccc(F)c(C(=O)c2c[nH]c3ncc(-c4ccc(Cl)cc4)cc23)c1F + CC(C)NCC(C(=O)N1CCN(c2ncnc3c2C(C)CC3O)CC1)c1ccc(Cl)cc1
IC50 (second compound 0.3 µM): 25900 nM
IC50 (second compound 0.949 µM): 24000 nM
IC50 (second compound 3 µM): 13100 nM
IC50 (second compound 9.49 µM): 64500 nM
IC50 (second compound 30 µM): 18800 nM
viability, T/C [3]: 127%
viability, T/C [4]: 108%
viability, T/C [5]: 105%
viability, T/C [6]: 118%
viability, T/C (second compound 0.3 µM, first compound 31.6 µM): 15.1%
viability, T/C (second compound 0.3 µM, first compound 100 µM): 57.5%
viability, T/C [9]: 121%
viability, T/C [10]: 110%
viability, T/C [11]: 107%
viability, T/C [12]: 80.3%
viability, T/C (second compound 0.949 µM, first compound 31.6 µM): 31.6%
viability, T/C (second compound 0.949 µM, first compound 100 µM): 49.3%
viability, T/C [15]: 115%
viability, T/C [16]: 110%
viability, T/C [17]: 105%
viability, T/C [18]: 61.1%
viability, T/C (second compound 3 µM, first compound 31.6 µM): 14.3%
viability, T/C (second compound 3 µM, first compound 100 µM): 10.9%
viability, T/C [21]: 112%
viability, T/C [22]: 120%
viability, T/C [23]: 107%
viability, T/C [24]: 114%
viability, T/C (second compound 9.49 µM, first compound 31.6 µM): 120%
viability, T/C (second compound 9.49 µM, first compound 100 µM): 10.4%
viability, T/C [27]: 121%
viability, T/C [28]: 124%
viability, T/C [29]: 64.3%
viability, T/C [30]: 119%
viability, T/C (second compound 30 µM, first compound 31.6 µM): 2.99%
viability, T/C (second compound 30 µM, first compound 100 µM): 2.24%
